# Test results from the NIST ThermoML archive (doi:10.1016/j.tca.2015.10.001).
# ± gives the expanded uncertainty stated by the source.
# Key:
# [1] = Crystal; DTA
# [2] = Molar enthalpy of transition or fusion; details: Crystal; DSC
compound,measurement,setting,value
CCCCCCCCCCCCCCCCCC [octadecane],Normal melting temperature,[1],28.40 ± 4 °C
same,Molar enthalpy of transition or fusion,[2],13.8 ± 0.86 kcal/mol
